Experimental data as given in the NIST ThermoML archive (doi:10.1016/j.jct.2016.07.011).

Conditions: Liquid; for mass density / viscosity: 101.33 kPa; for mass density: Vibrating tube method; for viscosity: Falling or rolling sphere viscometry; for vapor or sublimation pressure: Ebulliometric method (Recirculating still)

OCC(F)(F)C(F)F [2,2,3,3-tetrafluoro-1-propanol]
Conditions	mass density [kg/m3]	vapor or sublimation pressure [kPa]	viscosity [mPa·s]
293.15 K	1493.2	–	–
295.65 K	–	–	5.029
298.65 K	–	–	4.489
300.15 K	–	–	4.274
301.55 K	1482.8	–	–
302.15 K	–	–	3.794
304.15 K	–	–	3.595
306.15 K	1474.2	–	3.26
307.65 K	–	–	3.067
309.05 K	1468.6	–	–
309.15 K	–	–	2.954
311.65 K	–	–	2.703
312.65 K	1460.2	–	–
313.15 K	–	–	2.568
316.15 K	1454.2	–	–
318.15 K	–	–	2.153
319.35 K	1447.6	–	–
323.15 K	–	–	1.848
323.25 K	1441.8	–	–
327.05 K	1434	–	–
328.15 K	–	–	1.623
330.65 K	1427.4	–	–
333.15 K	–	–	1.408
334.35 K	1416.8	–	–
338.25 K	1409	–	–
342.25 K	1401	–	–
382.28 K	–	101.3	–

OCC(F)(F)C(F)(F)C(F)(F)C(F)F [2,2,3,3,4,4,5,5-octafluoro-1-pentanol]
Conditions	mass density [kg/m3]	vapor or sublimation pressure [kPa]	viscosity [mPa·s]
293.15 K	1674.2	–	–
295.65 K	–	–	13.11
297.55 K	–	–	12.16
300.15 K	–	–	10.64
301.55 K	1667	–	–
302.15 K	–	–	9.897
304.15 K	–	–	8.739
306.15 K	1659	–	8.04
307.65 K	–	–	7.416
309.05 K	1655.2	–	–
309.15 K	–	–	7.072
311.65 K	–	–	6.29
312.65 K	1649.2	–	–
313.15 K	–	–	5.94
316.15 K	1643	–	–
318.15 K	–	–	4.822
319.35 K	1636.4	–	–
323.15 K	–	–	3.855
323.25 K	1630.4	–	–
327.05 K	1623.2	–	–
328.15 K	–	–	3.298
330.65 K	1617.8	–	–
333.15 K	–	–	2.782
334.35 K	1609.6	–	–
338.25 K	1603.8	–	–
342.25 K	1596	–	–
413.25 K	–	101.3	–
413.57 K	–	101.3	–

CO [methanol]
Conditions	vapor or sublimation pressure [kPa]
337.45 K	101.3
